Reference: PubChem BioAssay AID248 (DTP/NCI, 2004)
Inconclusive results and toxic doses are left out. No stated cut-off is given here; in the data, active means T/C of 150% or more; inactive means T/C below 125%.

Test system: L1210 leukemia ip in BDF1 mice, survival T/C
Assay: NCI In Vivo Anticancer Drug Screen. Data for tumor model L1210 Leukemia (intraperitoneal) in B6D2F1 (BDF1) mice
Details: endpoint: mean survival time, higher = longer survival
Summary of the method: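 Mice bearing the transplanted tumor received compound or vehicle. Survival of the treated group was divided by that of the vehicle-treated control group to give the ratio.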

[1] = dose: 100.0 mg/kg/injection, schedule: Q01DX009 (ip), vehicle: Klucel (hydroxypropylcellulose) (HPC)
[2] = dose: 100.0 mg/kg/injection, schedule: Q04DX003 (ip), vehicle: Klucel (hydroxypropylcellulose) (HPC)
[3] = dose: 200.0 mg/kg/injection, schedule: Q01DX009 (ip), vehicle: Klucel (hydroxypropylcellulose) (HPC)
[4] = dose: 200.0 mg/kg/injection, schedule: Q04DX003 (ip), vehicle: Klucel (hydroxypropylcellulose) (HPC)
[5] = dose: 400.0 mg/kg/injection, schedule: Q01DX009 (ip), vehicle: Klucel (hydroxypropylcellulose) (HPC)
[6] = dose: 400.0 mg/kg/injection, schedule: Q04DX003 (ip), vehicle: Klucel (hydroxypropylcellulose) (HPC)
[7] = dose: 100.0 mg/kg/injection, schedule: Q01DX009 (ip), vehicle: saline with Tween-80
[8] = dose: 100.0 mg/kg/injection, schedule: Q04DX003 (ip), vehicle: saline with Tween-80
[9] = dose: 100.0 mg/kg/injection, schedule: Q01DX001 (ip), vehicle: saline
[10] = dose: 200.0 mg/kg/injection, schedule: Q01DX001 (ip), vehicle: saline
[11] = dose: 400.0 mg/kg/injection, schedule: Q01DX001 (ip), vehicle: saline
[12] = dose: 100.0 mg/kg/injection, schedule: Q01DX001 (ip), vehicle: Klucel (hydroxypropylcellulose) (HPC)
[13] = dose: 200.0 mg/kg/injection, schedule: Q01DX001 (ip), vehicle: Klucel (hydroxypropylcellulose) (HPC)
[14] = dose: 100.0 mg/kg/injection, schedule: Q04DX002 (ip), vehicle: Klucel (hydroxypropylcellulose) (HPC)
[15] = dose: 200.0 mg/kg/injection, schedule: Q04DX002 (ip), vehicle: Klucel (hydroxypropylcellulose) (HPC)
[16] = dose: 200.0 mg/kg/injection, schedule: Q01DX009 (ip), vehicle: saline with Tween-80
[17] = dose: 400.0 mg/kg/injection, schedule: Q01DX009 (ip), vehicle: saline with Tween-80
[18] = dose: 100.0 mg/kg/injection, schedule: Q01DX001 (ip), vehicle: carboxymethylcellulose (CMC)

Measured: T/C

Cc1cc([N+](=O)[O-])c(N)c([N+](=O)[O-])c1
inactive: [1] 98 % of control | [2] 105 % of control | [3] 92 % of control | [4] 105 % of control | [5] 97 % of control | [6] 105 % of control

CC(=O)N(CC(=O)OCc1ccccc1)C(C)=O
inactive: dose: 100.0 mg/kg/injection, schedule: Q01DX009 (ip), vehicle: saline 110 % of control | dose: 200.0 mg/kg/injection, schedule: Q01DX009 (ip), vehicle: saline 103 % of control | dose: 400.0 mg/kg/injection, schedule: Q01DX009 (ip), vehicle: saline 105 % of control

Cc1ccc(NC(=O)Oc2ccc(Cl)cc2C)c([N+](=O)[O-])c1
inactive: [2] 102 % of control | [4] 101 % of control | [6] 91 % of control

NCCc1ccc(Nc2ccnc3cc(Cl)ccc23)cc1
inactive: dose: 75.0 mg/kg/injection, schedule: Q01DX001 (ip), vehicle: saline 109 % of control | dose: 150.0 mg/kg/injection, schedule: Q01DX001 (ip), vehicle: saline 101 % of control | dose: 300.0 mg/kg/injection, schedule: Q01DX001 (ip), vehicle: saline 98 % of control

C1=C[P+](c2ccccc2)(c2ccccc2)CC[P+]1(c1ccccc1)c1ccccc1
inactive: dose: 75.0 mg/kg/injection, schedule: Q01DX001 (ip), vehicle: other 98 % of control | dose: 150.0 mg/kg/injection, schedule: Q01DX001 (ip), vehicle: other 95 % of control

Cc1ccc(N2C(=O)C3C(C2=O)C2(Cl)C(Cl)=C(Cl)C3(Cl)C2(Cl)Cl)cc1Cl (centres undefined)
inactive: [1] 94 % of control | [3] 87 % of control | [5] 92 % of control

NNC(=O)c1ccc([N+](=O)[O-])cc1
inactive: dose: 25.0 mg/kg/injection, schedule: Q01DX009 (ip), vehicle: saline with Tween-80 97 % of control | dose: 50.0 mg/kg/injection, schedule: Q01DX009 (ip), vehicle: saline with Tween-80 92 % of control | [7] 95 % of control | [8] 95 % of control

OC(c1cccc(C(O)(C(F)(F)F)C(F)(F)F)c1)(C(F)(F)F)C(F)(F)F
inactive: dose: 5.0 mg/kg/injection, schedule: Q01DX001 (ip), vehicle: saline 97 % of control | dose: 10.0 mg/kg/injection, schedule: Q01DX001 (ip), vehicle: saline 92 % of control | dose: 20.0 mg/kg/injection, schedule: Q01DX001 (ip), vehicle: saline 100 % of control | dose: 40.0 mg/kg/injection, schedule: Q01DX001 (ip), vehicle: saline 93 % of control

CC(=O)[O][Hg][c]1cc2c(cc1N)C(=O)c1ccccc1-2
inactive: dose: 12.5 mg/kg/injection, schedule: Q01DX001 (ip), vehicle: carboxymethylcellulose (CMC) 102 % of control

Cc1ccc2c(c1)c(C)c(C)c(=O)n2C
inactive: [9] 98 % of control | [10] 93 % of control | [11] 96 % of control

Nc1ccc2ccc3ccc4ccccc4c3c2c1
inactive: [12] 97 % of control | [2] 104 % of control | [13] 103 % of control | [4] 113 % of control | dose: 400.0 mg/kg/injection, schedule: Q01DX001 (ip), vehicle: Klucel (hydroxypropylcellulose) (HPC) 100 % of control | [6] 90 % of control

O=C(O)C(=O)c1ccccc1NC(=O)c1ccc(Cl)cc1
inactive: dose: 50.0 mg/kg/injection, schedule: Q04DX002 (ip), vehicle: Klucel (hydroxypropylcellulose) (HPC) 101 % of control | [14] 93 % of control | [15] 93 % of control

CC(C)(C)NC(c1ccccc1)C(NC(C)(C)C)c1ccccc1 (centres undefined)
inactive: dose: 50.0 mg/kg/injection, schedule: Q01DX001 (ip), vehicle: saline with Tween-80 91 % of control | dose: 100.0 mg/kg/injection, schedule: Q01DX001 (ip), vehicle: saline with Tween-80 91 % of control | dose: 200.0 mg/kg/injection, schedule: Q01DX001 (ip), vehicle: saline with Tween-80 94 % of control

CS(=O)(=O)c1nc2ccc([N+](=O)[O-])cc2s1
inactive: dose: 25.0 mg/kg/injection, schedule: Q04DX002 (ip), vehicle: saline 107 % of control | dose: 50.0 mg/kg/injection, schedule: Q04DX002 (ip), vehicle: saline 104 % of control | dose: 100.0 mg/kg/injection, schedule: Q04DX002 (ip), vehicle: saline 100 % of control

COc1ccc(NC(=O)CC(C)(C)C(=O)O)cc1
inactive: [7] 94 % of control | [16] 92 % of control | [17] 90 % of control

O=C(O)c1cc(O)c(O)cc1O
inactive: [18] 98 % of control | dose: 200.0 mg/kg/injection, schedule: Q01DX001 (ip), vehicle: carboxymethylcellulose (CMC) 108 % of control | dose: 400.0 mg/kg/injection, schedule: Q01DX001 (ip), vehicle: carboxymethylcellulose (CMC) 92 % of control

Cc1cccc(C)c1NC(=O)Nc1cccc(Cl)c1
inactive: [1] 93 % of control | [2] 94 % of control | [3] 93 % of control | [4] 89 % of control | [5] 92 % of control | [6] 89 % of control

CC1=C/C(=N\N=C2/C=C(C)CC(C)(C)C2)CC(C)(C)C1
inactive: [1] 95 % of control | [3] 105 % of control | [5] 100 % of control

COC(=O)C(CCC(=O)OC(C)(C)C)NC(=O)C(F)(F)F (centres undefined)
inactive: dose: 50.0 mg/kg/injection, schedule: Q01DX001 (ip), vehicle: Klucel (hydroxypropylcellulose) (HPC) 94 % of control | [12] 100 % of control | [13] 97 % of control

NC(=O)CNC(=O)OCc1ccccc1
inactive: [1] 102 % of control | [2] 94 % of control | [3] 94 % of control | [4] 105 % of control | [5] 107 % of control | [6] 94 % of control

CN(C)N=Nc1ccc(-c2nnco2)cc1
inactive: dose: 100.0 mg/kg/injection, schedule: Q04DX002 (ip), vehicle: saline with Tween-80 110 % of control | dose: 200.0 mg/kg/injection, schedule: Q04DX002 (ip), vehicle: saline with Tween-80 106 % of control | dose: 400.0 mg/kg/injection, schedule: Q04DX002 (ip), vehicle: saline with Tween-80 119 % of control

Cc1ccc(NC(=O)ON(C)C)cc1
inactive: dose: 25.0 mg/kg/injection, schedule: Q04DX002 (ip), vehicle: other 99 % of control | dose: 50.0 mg/kg/injection, schedule: Q04DX002 (ip), vehicle: other 96 % of control | dose: 100.0 mg/kg/injection, schedule: Q04DX002 (ip), vehicle: other 92 % of control

CC(=O)OCCc1ccccc1C
inactive: [14] 112 % of control | [15] 104 % of control | dose: 400.0 mg/kg/injection, schedule: Q04DX002 (ip), vehicle: Klucel (hydroxypropylcellulose) (HPC) 101 % of control

Cc1c(/C=N\Nc2ccccc2)[nH]c(=O)[nH]c1=O
inactive: [9] 92 % of control | [10] 92 % of control | [11] 86 % of control

CC1(C)C=C(C(Br)c2cccc(Br)c2)C(=O)c2ccccc21 (centres undefined)
inactive: [1] 101 % of control | [2] 97 % of control | [3] 100 % of control | [4] 95 % of control | [5] 102 % of control | [6] 103 % of control

CSc1ncnc2c1N=CNN2
inactive: dose: 50.0 mg/kg/injection, schedule: Q01DX001 (ip), vehicle: carboxymethylcellulose (CMC) 94 % of control | [18] 95 % of control

N#Cc1nc[nH]c1C(N)=O
inactive: [9] 94 % of control | [10] 94 % of control | [11] 96 % of control

CS(=O)(=O)OCCBr
inactive: dose: 12.5 mg/kg/injection, schedule: Q04DX003 (ip), vehicle: saline 88 % of control | dose: 25.0 mg/kg/injection, schedule: Q04DX003 (ip), vehicle: saline 90 % of control | dose: 50.0 mg/kg/injection, schedule: Q04DX003 (ip), vehicle: saline 87 % of control | [18] 103 % of control

CCCCNC(C)(C)C(SS)c1ccc(Cl)cc1 (centres undefined)
inactive: dose: 50.0 mg/kg/injection, schedule: Q01DX009 (ip), vehicle: other 94 % of control | dose: 100.0 mg/kg/injection, schedule: Q01DX009 (ip), vehicle: other 92 % of control

Cc1cccc(OC(F)(F)C(F)Cl)c1 (centres undefined)
inactive: [7] 94 % of control | [8] 93 % of control | [16] 92 % of control | dose: 200.0 mg/kg/injection, schedule: Q04DX003 (ip), vehicle: saline with Tween-80 93 % of control | [17] 100 % of control | dose: 400.0 mg/kg/injection, schedule: Q04DX003 (ip), vehicle: saline with Tween-80 95 % of control

CCCCCCCCCCCCCCCCCCSc1ccccc1
inactive: [2] 93 % of control | [4] 93 % of control | [6] 94 % of control
